Measured values reported in patent US20060051526A1, “Process for producing cellulose acylate film” (Fuji Photo Film Co., Ltd., priority 2002, published 2006).

Assays:
Format in all cases: physicochemical
[1] = Solubility test of the additive alone in dichloromethane/methanol mixed solvent (visual, after 4 days)
[2] = Measurement of micro heat of solution (multi-purpose calorimeter MPC-110); conditions: for Degree of stabilization: Table 15; for Heat of solution ΔH0: solvent alone, 26.0° C.
Experimental: (2 Measurement of Micro Heat of Solution)
The heat of solution (dissolution enthalpy ΔH) of functional additives was measured as follows, using a multi-purpose calorimeter (MPC-110) manufactured by Tokyo Rikou as a micro heat of solution measuring instrument.
1. Solvent liquids and concentrated solutions were prepared beforehand in 1 L bottles.
2. Preparation of ampoule tubes
(1) Additives (powdered solid) were ground by a mortar and the granules were made uniform.
(2) A required amount (252 mg) of the additive to be measured was weighed into an ampoule tube for measurement of the micro heat of solution.
(3) The neck of the ampoule tube was heated sufficiently by a gas burner so as to seal the ampoule tube.
3. 50 g of the prepared solvent liquid or the concentrated solution was weighed into a measuring vessel. This amount was selected as an amount sufficient to immerse the ampoule tube in the solvent liquid when set in the measuring instrument.
4. The ampoule tube was set in the measuring instrument, which was equipped with an ampoule sealing mechanism, the measuring vessel was hermetically sealed with the ampoule sealing mechanism after confirming that the ampoule tube was immersed in the solvent liquid, it was placed in a constant temperature bath (26.0° C.), and stirring was started.
5. After confirming that the measuring instrument placed in the constant temperature bath had reached equilibrium temperature (about 8 to 12 hours) the ampoule tube was broken so as to mix the additive with the solvent liquid or the concentrated solution.
6. The total amount of heat generated was recorded.
7. The Joule's heat generated was measured by applying a known voltage to the measurement system for an appropriate time, and the recorded chart area for each measurement cell was calibrated using a known amount of heat.
8. The heat of solution of the sample was calculated from the Joule's heat and the measured sample area.
Shown in Table 11 are the solvent composition (wt %) and the solids composition (parts by weight) of the mother liquor when measuring the heat of solution, the type of retardation control agent sealed in the ampoule tube (Example Compounds I-(51) or I-(2)), and the results of measurement of the heat of solution.
The identification symbols of elements constituting the system are as follows: a denotes triacetylcellulose/plasticizer, b denotes triacetylcellulose, and c denotes plasticizer. For example, 2-87a denotes that the retardation control agent is the Example Compound I-(2), the solvent composition (wt %) is dichloromethane/methanol=87/13, and the solids constituting the system are triacetylcellulose and the plasticizer.
The heat of solution ΔH0 denotes the heat of solution (heat absorption) generated when there is no solid in the system (before breaking the ampoule tube) and the retardation control agent is dissolved in a solvent alone. […] The solids concentration of the system when saturation starts is defined as the saturation heat of solution solids concentration (wt %).
In all cases, when the solids concentration of the system is increased, the heat of solution either remains unchanged from that at a solids concentration of 0 wt % (the saturation heat of solution solids concentration is 0) or decreases and becomes saturated. […] This degree of stabilization is expressed as ΔH0−ΔHs, which is the decrease in the heat of solution.

[3] = Solubility test of the additive alone in dichloromethane/methanol mixed solvent (visual, after 4 days); conditions: for Solubility S0 (solids weight concentration at the dissolution limit): CH2Cl2/CH3OH 87/13
Experimental: The solubility of the functional additives was measured as follows.
1. Solutions were prepared by adjusting each concentration in a 50 cc screw cap bottle.
2. Allowed to stand at room temperature for 4 days. Here, the results of the solubility changed between 1 day and 4 days in some cases, and evaluation of the solubility was carried out after 4 days as a time when equilibrium was reached.
3. Samples were prepared in the same manner at other temperatures (20° C., 35° C.), and the solubility after allowing to stand for 4 days was visually inspected.
Predetermined amounts of Example Compounds I-(51) and I-(2) were weighed into a mixed solvent of dichloromethane and methanol, and the solubility was measured by changing the mixing ratio of the organic solvents.
The solubility (solids weight concentration at the dissolution limit was calculated as (C1+C2)/2 when the concentration limit at which it could be dissolved was C1 and the concentration limit at which it could not be dissolved was C2) of the retardation control agent in a mixed solvent having an initial methylene chloride/methanol composition ratio of 87/13 was defined as S0, and the solubility of the retardation control agent when the solvent composition changed, during drying, to 74/26 where the methanol wt % was the maximum was defined as S1. The temperature at which the solubility was measured is denoted by the figure in brackets.

[4] = 87/13, solids b: triacetylcellulose only
[5] = 87/13, solids c: plasticizer only

- Solubility in dichloromethane/methanol mixed solvent (in words) ([1]; 20° C. and 35° C.): excellent
- Difference S0 − S1 ([1]; 20° C., 87/13 vs 74/26): 10 wt %
- Difference S0 − S1 ([1]; 20° C., 92/8 vs 91/9): 0 wt %
- Ratio S1/S0 ([1]; 20° C., 92/8 vs 91/9): 1.000
- Solubility S1 (solids weight concentration at the dissolution limit) ([1]; 20° C., CH2Cl2/CH3OH 74/26): 17.5 wt %
- Solubility S1 (solids weight concentration at the dissolution limit) ([1]; 20° C., CH2Cl2/CH3OH 91/9): 32.5 wt %
- Solubility S0 (solids weight concentration at the dissolution limit) ([1]; 20° C., CH2Cl2/CH3OH 92/8): 32.5 wt %
- Difference S0 − S1 ([1]; 25° C., 87/13 vs 74/26): 10 wt %
- Difference S0 − S1 ([1]; 25° C., 92/8 vs 91/9): 0 wt %
- Ratio S1/S0 ([1]; 25° C., 92/8 vs 91/9): 1.000
- Solubility S1 (solids weight concentration at the dissolution limit) ([1]; 25° C., CH2Cl2/CH3OH 74/26): 17.5 wt %
- Solubility S0 (solids weight concentration at the dissolution limit) ([1]; 25° C., CH2Cl2/CH3OH 87/13): 27.5 wt %
- Solubility S1 (solids weight concentration at the dissolution limit) ([1]; 25° C., CH2Cl2/CH3OH 91/9): 32.5 wt %
- Solubility S0 (solids weight concentration at the dissolution limit) ([1]; 25° C., CH2Cl2/CH3OH 92/8): 32.5 wt %
- Difference S0 − S1 ([1]; 35° C., 92/8 vs 91/9): 0 wt %
- Ratio S1/S0 ([1]; 35° C., 92/8 vs 91/9): 1.000
- Solubility S1 (solids weight concentration at the dissolution limit) ([1]; 35° C., CH2Cl2/CH3OH 91/9): 32.5 wt %
- Solubility S0 (solids weight concentration at the dissolution limit) ([1]; 35° C., CH2Cl2/CH3OH 92/8): 32.5 wt %
- Degree of stabilization (ΔH0 − ΔHs) ([2]; 50/50, solids a): 0 kJ/mol
- Saturation heat of solution solids concentration ([2]; 50/50, solids a): 0 wt %
- Heat of solution ΔHs ([2]; 50/50, solids a: triacetylcellulose/plasticizer): 25.8 kJ/mol
- Degree of stabilization (ΔH0 − ΔHs) ([2]; 74/26, solids a): 0 kJ/mol
- Saturation heat of solution solids concentration ([2]; 74/26, solids a): 0 wt %
- Heat of solution ΔHs ([2]; 74/26, solids a: triacetylcellulose/plasticizer): 29.2 kJ/mol
- Degree of stabilization (ΔH0 − ΔHs) ([2]; 87/13, solids a: triacetylcellulose/plasticizer): 5.86 kJ/mol
- Heat of solution ΔHs ([2]; 87/13, solids a: triacetylcellulose/plasticizer (TPP/BDP)): 25.5 kJ/mol
- Degree of stabilization (ΔH0 − ΔHs) [2, 4]: 8.4 kJ/mol
- Heat of solution ΔHs [2, 4]: 23 kJ/mol
- Degree of stabilization (ΔH0 − ΔHs) [2, 5]: 4.6 kJ/mol
- Heat of solution ΔHs [2, 5]: 26.8 kJ/mol
- Degree of stabilization (ΔH0 − ΔHs) ([2]; 92/8, solids a): 5.77 kJ/mol
- Saturation heat of solution solids concentration ([2]; 92/8, solids a): 7 wt %
- Heat of solution ΔHs ([2]; 92/8, solids a: triacetylcellulose/plasticizer): 24.4 kJ/mol
- Degree of stabilization (ΔH0 − ΔHs) ([2]; 100/0, solids a): 5.65 kJ/mol
- Saturation heat of solution solids concentration ([2]; 100/0, solids a): 10 wt %
- Heat of solution ΔHs ([2]; 100/0, solids a: triacetylcellulose/plasticizer): 22.1 kJ/mol
- Degree of stabilization ([2]; dope Table 12, solvent composition 87/13): 5.86 kJ/mol
- Degree of stabilization ([2]; dope Table 13, solvent composition 92/8): 5.77 kJ/mol
- Degree of stabilization ([2]; dope Table 14, solvent composition 74/26): 0 kJ/mol
- Stabilization by solids in the system (in words) ([2]; case c: only the plasticizer present in the system): is stabilized
- Heat of solution ΔH0 ([2]; dichloromethane/methanol 50/50 wt %): 25.8 kJ/mol
- Heat of solution ΔH0 ([2]; dichloromethane/methanol 74/26 wt %): 29.2 kJ/mol
- Heat of solution ΔH0 ([2]; dichloromethane/methanol 87/13 wt %): 31.4 kJ/mol
- Heat of solution ΔH0 ([2]; dichloromethane/methanol 92/8 wt %): 30.2 kJ/mol
- Heat of solution ΔH0 ([2]; dichloromethane/methanol 100/0 wt %): 27.8 kJ/mol
- Ratio S1/S0 ([3]; 20° C., 87/13 vs 74/26): 0.636
- Solubility S0 (solids weight concentration at the dissolution limit) ([3]; 20° C.): 27.5 wt %
- Ratio S1/S0 ([3]; 25° C., 87/13 vs 74/26): 0.636
- Difference S0 − S1 ([3]; 35° C., 87/13 vs 74/26): 10 wt %
- Ratio S1/S0 ([3]; 35° C., 87/13 vs 74/26): 0.692
- Solubility S1 (solids weight concentration at the dissolution limit) ([3]; 35° C., CH2Cl2/CH3OH 74/26): 22.5 wt %
- Solubility S0 (solids weight concentration at the dissolution limit) ([3]; 35° C.): 32.5 wt %
Structure (SMILES): COc1ccc(Nc2nc(Nc3cccc(C)c3)nc(Nc3cccc(C)c3)n2)cc1 [Example Compound I-(2)]
